Test results reported in patent US9476099B2 (TRUSTEES OF DARTMOUTH COLLEGE, priority 2012, dated 2016).

Legend:
NT2/D1-R1 cells = test: Apoptosis by PARP cleavage and sub G1 DNA content; format: cell-based; conditions: cisplatin; cisplatin-resistant NT2/D1-R1
Method: (§1) Importantly, decitabine-mediated H2AX activation also occurs in the presence of the caspase 3 inhibitor (Z-VAD-FMK) at concentrations that inhibit PARP cleavage.
(§2) Cells were cultured in DMEM media (Gibco) with 10% FBS. Decitabine was added fresh each day. Lentiviral control cells and the stable shRNA DNMT3B knockdown cell line (NT2/D1-R1-sh84) were described previously (Beyrouthy et al. 2009. Cancer Res. 69:9360-9366). DNMT3B knockdown was greater than 90% as confirmed by western blot analysis. Cell proliferation and survival were assessed with the CELL-TITRE GLO assay (Promega). Cell cycle analysis with propidium iodine has been previously described (Kerley-Hamilton et al. 2005. Oncogene 24:6090-6100).
(§3) SYBR green-based real-time PCR (Applied Biosystems) was employed using the ddCT method normalized to GAPDH. For western blot analysis cells were lysed in radioimmune precipitation buffer and separated by SDS-PAGE. Antibodies to actin (sc01615, Santa Cruz), 139-H2AX (Cell Signaling), PARP (c-2-10, Biomol International) and p53 (D0-1, Santa Cruz) were used.

NT2 cells = test: Gene set enrichment analysis (GSEA) of microarray data (Table 6); format: cell-based, human; conditions: Gene Sets Enriched in NT2 Cells with Cisplatin Treatment (0.5 μM for 3 days)
Method: Gene set enrichment analysis (GSEA) was performed.
(§4) Expression analysis was performed on the […] HumanHT-12 v3 or […] HumanHT-12 v4 bead chip arrays ([…]) and scanned on the BeadArray Reader ([…]) according to manufacturer's instructions.

NT2/D1 cells [1] = test: Gene expression microarray with PAM cluster analysis (Tables 1-5); format: cell-based, human
Method: The cisplatin treatment protocol has been previously described (Kerley-Hamilton et al. 2005. Oncogene 24:6090-6100).
The same effect was not observed in cells treated with cisplatin; gene expression levels were not dramatically altered in cisplatin-treated cells. […] The genes clustered into distinct patterns.
Next, partitioning around medoids (PAM) analysis was performed on the 1130 genes whose expression levels changed by 1.5-fold or greater as compared to control treatment. […] Changes in gene expression levels of representative genes for each cluster were confirmed in independent samples by real-time PCR (FIG. 10).
as §4

NT2/D1 cells [2] = test: Apoptosis by PARP cleavage and sub G1 DNA content; format: cell-based; conditions: cisplatin 0.5 μM; NT2/D1 versus NT2/D1-R1
Method: as §2, §3

NT2/D1 cells [3] = test: Cell-Titre Glo viable cell growth and survival, 3 day decitabine; format: cell-based; conditions: NT2/D1
Method: Indicated doses of decitabine were added fresh each day for three days to exponentially growing cultures. Viable cell growth and survival were measured. Data are normalized to no drug treatment. EC cells are NT2/D1, NT2D1/R1, 833K, 833KCP, and Tera-1. Data are the average of 3 experiments in biological duplicate except for MCF-7 cells, which were assayed twice. Error bars are standard deviation (S.D.).
Cell growth and viability of five EC cell lines (NT2/D1, NT2D1/R1, 833K, 833KCP, and Tera-1) were determined, including two cell lines that are cisplatin-resistant (NT2/D1-R1 and 833KCP). Three control somatic tumor cell lines were also tested (HCT116, MCF7 and U2OS). […] Viable cell growth and survival were measured using Cell-Titre Glo (Promega) assays. […] These higher values are similar to the values shown in FIG. 1 for somatic tumor cell lines (MCF7, U2OS and HCT116).
NT2/D1, NT2D1-R1, 833K, 833K-CP, Tera-1, U20S, and HCT116 cells were cultured in DMEM with 10% FBS supplemented with glutamine and antibiotics except for MCF7 cells that were cultured in F12-DMEM. The derivation of the NT2/D1-resistant NT2/D1-R1 cell line has been previously described (Curtin et al. 2001. Oncogene 20:2559-2569; Kerley-Hamilton et al. 2007. Biochim. Biophys. Acta 1769:209-219). Cells were treated with the indicated dosages of 5-azadeoxycytidine (5-aza-CdR) for 3 days. This drug was replenished each day. Cisplatin (Bristol Laboratories) treatments were performed at the concentrations and time points indicated. To assess cell proliferation and survival, CELL-TITRE GLO (Promega) assays were performed.
as §2

[4] = test system: phosphorylated H2AX in NT2/D1-R1 cells; test: DNA damage by induction of phosphorylated H2AX (western blot); format: cell-based; conditions: cisplatin
From the text: as §1, §3

## N.N.[Cl][Pt][Cl] [cisplatin]
NT2/D1-R1 cells
  PARP cleavage: does not induce PARP cleavage
NT2 cells
  NES, AMIT_EGF_RESPONSE_120_MCF10A: −2.2779
  NES, AMIT_EGF_RESPONSE_480_HELA: −2.5999
  NES, AMUNDSON_DNA_DAMAGE_RESPONSE_TP53: −2.2828
  NES, CONCANNON_APOPTOSIS_BY_EPOXOMICIN_UP: −2.2899
  NES, DACOSTA_UV_RESPONSE_VIA_ERCC3_UP: −2.3411
  NES, INGA_TP53_TARGETS: −2.3095
  NES, KANNAN_TP53_TARGETS_UP: −2.5961
  NES, KERLEY_RESPONSE_TO_CISPLATIN_UP: −3.0393
  NES, SCHAVOLT_TARGETS_OF_TP53_AND_TP63: −2.4114
  NES, WEIGEL_OXIDATIVE_STRESS_RESPONSE: −2.3010
NT2/D1 cells [1]; 0.5 μM cisplatin 6 hours, 24 hour recovery
  Cluster 2: unique genes whose expression levels were increased only by cisplatin treatment: 81 genes
NT2/D1 cells [1]; 1.5-fold or greater
  Cluster 3: genes upregulated by both decitabine treatment and cisplatin treatment: 71 genes
  Cluster 5: genes down-regulated by both decitabine treatment and cisplatin treatment: 88 genes
NT2/D1 cells [2]
  apoptotic responses (PARP cleavage, sub G1 DNA content): induces these responses only in cisplatin-sensitive NT2/D1 cells
NT2/D1 cells [3]; after 1 day of cisplatin treatment
  effects on cell viability and proliferation: minimal
NT2/D1 cells [3]; by day two of cisplatin treatment
  effects on cell viability and proliferation: robust anti-proliferation and cell death effects
[4]
  induction of phospho-H2AX: can induce phospho-H2AX
